Test results from patent publication US5162354A, “3-halo-5-halomethyl-2-oxazolidinones and their use as microbicides” (Buckman Laboratories International, Inc., priority 1991, dated 1992).
≈ marks a conversion by molar mass, not a printed value. Like-named read-outs stand apart in the source and are kept apart here.

How the values were obtained:
Type in all cases: cell-based
[1] = system: Enterobacter aerogenes; assay: Basal salts method, minimum inhibitory concentration against Enterobacter aerogenes; conditions: Klebsiella aerogenes, at least 80% kill
Procedure: Compounds 1-4 of Examples 3-6 of the present invention were tested by the basal salts method described in U.S. Pat. No. 2,881,070 at column 5, beginning at line 12 and extending to column 6, line 53. […] The minimum inhibitory concentrations are those in which a percentage kill of at least 80% is obtained.

[2] = system: Aspergillus niger; assay: Growth inhibiting activity on the fungus Aspergillus niger; conditions: Aspergillus niger pH 6.0; completely prevented growth; read-out: Minimum inhibitory concentration against fungi
Procedure: The microorganism growth inhibiting activity of compounds 1-4 on the fungus Aspergillus niger was evaluated. The method is described in U.S. Pat. No. 4,945,109, column 5 beginning at line 47 to column 6, line 33. The disclosure of U.S. Pat. No. 4,945,109 is incorporated herein by reference.

[3] = system: Chlorella pyrenoidosa; assay: Growth inhibiting activity against algae in Difco Algae Broth (Chlorella pyrenoidosa); conditions: Auxenochlorella pyrenoidosa, 672 h, pH 7, read-out: Minimum inhibitory concentration against algae
Procedure: (§1) The growth inhibiting activity of the method of the invention against the three algae Chlorella pyrenoidosa, Chlorococcum hypnosporum and Phormidium inundatum was evaluated in Difco Algae Broth, the content of which was as follows:
(§2) Forty-gram portions of the algae medium were added to 250 mL Pyrex Erlenmeyer flasks fitted with loose metal caps and then sterilized. Each of the following substances was then added to the flasks in the order listed:
(§3) 1. Sterile algae medium as required to bring the total weight of the contents of each flask to 50 grams, after allowing for all subsequent additions specified below.
(§4) 2. A solution of one of compounds 1-4 or of a control agent to be evaluated in each test, to give the concentration desired in parts per million by weight.
(§5) 3. Chlorella pyrenoidosa, Chlorococcum hypnosporum and Phormidium inundatum in amounts sufficient to give excellent growth in the controls after 14 days. This was achieved by adding 1 milliliter of a 14 day old culture having luxuriant growth. The Chlorella pyrenoidosa culture was obtained from American Type Culture Collection No. 7516; Chlorococcum hypnosporum, from the University of TX at Austin; and Phormidium inundatum, WI No. 1093, from the University of WA.
(§6) As a control experiment, WSCP was used as a positive control agent. WSCP is a known toxicant which kills C. pyrenoidosa at 2 ppm, C. hypnosporum at 2ppm, and P. inundatum at 10 ppm. Control experiments were also carried out where no toxicants were employed. In the algicidal tests, the growth of algae in the nutrient medium is lush green and can be seen with the naked eye. Because the minimum inhibitory concentrations of the compounds in this example are those which result in complete inhibition, evaluation of the test results is not subjective.
(§7) After the inoculum of the test algae was added, the flasks were incubated at a temperature of 28°±2° C. under fluorescent illumination of 250 foot-candle intensity (8 hours light, 16 hours darkness) for a period adequate for growth in the controls (those portions of medium which contained no toxicant). Observations of growth were made at 7-day intervals. Minimum inhibitory concentrations are those that prevented complete growth after 28 days.

[4] = system: mixture of Staphylococcus aureus, Enterobacter aerogenes and Pseudomonas aeruginosa; assay: Long-term effectiveness in water as disinfectant, basal salts method, mixture of test organisms; conditions: for activity maintained (percent kill): up to three days post-preparation in water, short contact (up to 10 min)
Procedure: In order to test the effectiveness of the compounds of the present invention over a period of 15 days, the following experiment was conducted using Compound 1.
The basal salts method described in U.S. Pat. No. 2,881,070 at column 5, beginning at line 12 and extending to column 6, line 53 was performed at two different pH values and percent kills were obtained with a mixture of test organisms (Staphylococcus aureus, Enterobacter aerogenes and Pseudomonas aeruginosa). […] At 80 ppm, prolonged sanitizing ability is maintained (99% or greater) with prolonged exposure times (24 hours contact through 15 […] post-preparation in water).
^a Control indicates the population of the test organism and is used
to make sure there is vigorous growth and to calculate % kills.

[5] = system: Phormidium inundatum; assay: Growth inhibiting activity against algae in Difco Algae Broth (Phormidium inundatum); conditions: 672 h, pH 7, read-out: Minimum inhibitory concentration against algae
Procedure: as §1, §2, §3, §4, §5, §6, §7

## O=C1OC(CCl)CN1Br (stereo not shown) [Compound 1, 3-Bromo-5-chloromethyl-2-oxazolidinone]
[1]; pH 6.0
  MIC: 10 µg/mL
[1]; pH 8.0
  MIC: 10 µg/mL
[2]
  MIC: 10 µg/mL (≈ 46.6 µM)
[3]
  MIC: 10 µg/mL (≈ 46.6 µM)
[4]; 10 min, pH 6, Day 1 after preparation in soft water, pH 6.0, 10 min contact, read-out: % Reduction (Kill)
  killing at 40 ppm: 100%
[4]; 10 min, pH 6, Day 1 after preparation in soft water, 80 ppm, pH 6.0, 10 min contact, read-out: % Reduction (Kill)
  killing at 80 ppm: 100%
[4]; 10 min, pH 6, Day 2 after preparation in soft water, pH 6.0, 10 min contact, read-out: % Reduction (Kill)
  killing at 40 ppm: 100%
[4]; 10 min, pH 6, Day 2 after preparation in soft water, 80 ppm, pH 6.0, 10 min contact, read-out: % Reduction (Kill)
  killing at 80 ppm: 100%
[4]; 10 min, pH 6, Day 3 after preparation in soft water, pH 6.0, 10 min contact, read-out: % Reduction (Kill)
  killing at 40 ppm: 100%
[4]; 10 min, pH 6, Day 3 after preparation in soft water, 80 ppm, pH 6.0, 10 min contact, read-out: % Reduction (Kill)
  killing at 80 ppm: 100%
[4]; 10 min, pH 6, Day 4 after preparation in soft water, pH 6.0, 10 min contact, read-out: % Reduction (Kill)
  killing at 40 ppm: 38.8%
[4]; 10 min, pH 6, Day 4 after preparation in soft water, 80 ppm, pH 6.0, 10 min contact, read-out: % Reduction (Kill)
  killing at 80 ppm: 54.3%
[4]; 10 min, pH 6, Day 5 after preparation in soft water, pH 6.0, 10 min contact, read-out: % Reduction (Kill)
  killing at 40 ppm: 26.8%
[4]; 10 min, pH 6, Day 5 after preparation in soft water, 80 ppm, pH 6.0, 10 min contact, read-out: % Reduction (Kill)
  killing at 80 ppm: 41.4%
[4]; 10 min, pH 6, Day 14 after preparation in soft water, pH 6.0, 10 min contact, read-out: % Reduction (Kill)
  killing at 40 ppm: 40%
[4]; 10 min, pH 6, Day 14 after preparation in soft water, 80 ppm, pH 6.0, 10 min contact, read-out: % Reduction (Kill)
  killing at 80 ppm: 28.7%
[4]; 10 min, pH 6, Day 15 after preparation in soft water, pH 6.0, 10 min contact, read-out: % Reduction (Kill)
  killing at 40 ppm: 39.3%
[4]; 10 min, pH 6, Day 15 after preparation in soft water, 80 ppm, pH 6.0, 10 min contact, read-out: % Reduction (Kill)
  killing at 80 ppm: 13.1%
[4]; 10 min, pH 8, Day 1 after preparation in soft water, pH 8.0, 10 min contact, read-out: % Reduction (Kill)
  killing at 40 ppm: 100%
[4]; 10 min, pH 8, Day 1 after preparation in soft water, 80 ppm, pH 8.0, 10 min contact, read-out: % Reduction (Kill)
  killing at 80 ppm: 100%
[4]; 10 min, pH 8, Day 2 after preparation in soft water, pH 8.0, 10 min contact, read-out: % Reduction (Kill)
  killing at 40 ppm: 100%
[4]; 10 min, pH 8, Day 2 after preparation in soft water, 80 ppm, pH 8.0, 10 min contact, read-out: % Reduction (Kill)
  killing at 80 ppm: 100%
[4]; 10 min, pH 8, Day 3 after preparation in soft water, pH 8.0, 10 min contact, read-out: % Reduction (Kill)
  killing at 40 ppm: 100%
[4]; 10 min, pH 8, Day 3 after preparation in soft water, 80 ppm, pH 8.0, 10 min contact, read-out: % Reduction (Kill)
  killing at 80 ppm: 100%
[4]; 10 min, pH 8, Day 4 after preparation in soft water, pH 8.0, 10 min contact, read-out: % Reduction (Kill)
  killing at 40 ppm: 34.2%
[4]; 10 min, pH 8, Day 4 after preparation in soft water, 80 ppm, pH 8.0, 10 min contact, read-out: % Reduction (Kill)
  killing at 80 ppm: 46%
[4]; 10 min, pH 8, Day 5 after preparation in soft water, pH 8.0, 10 min contact, read-out: % Reduction (Kill)
  killing at 40 ppm: 51.8%
[4]; 10 min, pH 8, Day 5 after preparation in soft water, 80 ppm, pH 8.0, 10 min contact, read-out: % Reduction (Kill)
  killing at 80 ppm: 51.8%
[4]; 10 min, pH 8, Day 14 after preparation in soft water, pH 8.0, 10 min contact, read-out: % Reduction (Kill)
  killing at 40 ppm: 69.5%
[4]; 10 min, pH 8, Day 14 after preparation in soft water, 80 ppm, pH 8.0, 10 min contact, read-out: % Reduction (Kill)
  killing at 80 ppm: 83.8%
[4]; 10 min, pH 8, Day 15 after preparation in soft water, pH 8.0, 10 min contact, read-out: % Reduction (Kill)
  killing at 40 ppm: 68.6%
[4]; 10 min, pH 8, Day 15 after preparation in soft water, 80 ppm, pH 8.0, 10 min contact, read-out: % Reduction (Kill)
  killing at 80 ppm: 70.2%
[4]; 24 h, pH 6, Day 1 after preparation in soft water, pH 6.0, 24 hours contact, read-out: % Reduction (Kill)
  killing at 40 ppm: 100%
[4]; 24 h, pH 6, Day 1 after preparation in soft water, 80 ppm, pH 6.0, 24 hours contact, read-out: % Reduction (Kill)
  killing at 80 ppm: 100%
[4]; 24 h, pH 6, Day 2 after preparation in soft water, pH 6.0, 24 hours contact, read-out: % Reduction (Kill)
  killing at 40 ppm: 100%
[4]; 24 h, pH 6, Day 2 after preparation in soft water, 80 ppm, pH 6.0, 24 hours contact, read-out: % Reduction (Kill)
  killing at 80 ppm: 100%
[4]; 24 h, pH 6, Day 3 after preparation in soft water, pH 6.0, 24 hours contact, read-out: % Reduction (Kill)
  killing at 40 ppm: 100%
[4]; 24 h, pH 6, Day 3 after preparation in soft water, 80 ppm, pH 6.0, 24 hours contact, read-out: % Reduction (Kill)
  killing at 80 ppm: 100%
[4]; 24 h, pH 6, Day 4 after preparation in soft water, pH 6.0, 24 hours contact, read-out: % Reduction (Kill)
  killing at 40 ppm: 99.6%
[4]; 24 h, pH 6, Day 4 after preparation in soft water, 80 ppm, pH 6.0, 24 hours contact, read-out: % Reduction (Kill)
  killing at 80 ppm: 99.9%
[4]; 24 h, pH 6, Day 5 after preparation in soft water, pH 6.0, 24 hours contact, read-out: % Reduction (Kill)
  killing at 40 ppm: 91.8%
[4]; 24 h, pH 6, Day 5 after preparation in soft water, 80 ppm, pH 6.0, 24 hours contact, read-out: % Reduction (Kill)
  killing at 80 ppm: 99.6%
[4]; 24 h, pH 6, Day 14 after preparation in soft water, pH 6.0, 24 hours contact, read-out: % Reduction (Kill)
  killing at 40 ppm: 99.8%
[4]; 24 h, pH 6, Day 14 after preparation in soft water, 80 ppm, pH 6.0, 24 hours contact, read-out: % Reduction (Kill)
  killing at 80 ppm: 100%
[4]; 24 h, pH 6, Day 15 after preparation in soft water, pH 6.0, 24 hours contact, read-out: % Reduction (Kill)
  killing at 40 ppm: 96%
[4]; 24 h, pH 6, Day 15 after preparation in soft water, 80 ppm, pH 6.0, 24 hours contact, read-out: % Reduction (Kill)
  killing at 80 ppm: 100%
[4]; 24 h, pH 8, Day 1 after preparation in soft water, pH 8.0, 24 hours contact, read-out: % Reduction (Kill)
  killing at 40 ppm: 100%
[4]; 24 h, pH 8, Day 1 after preparation in soft water, 80 ppm, pH 8.0, 24 hours contact, read-out: % Reduction (Kill)
  killing at 80 ppm: 100%
[4]; 24 h, pH 8, Day 2 after preparation in soft water, pH 8.0, 24 hours contact, read-out: % Reduction (Kill)
  killing at 40 ppm: 100%
[4]; 24 h, pH 8, Day 2 after preparation in soft water, 80 ppm, pH 8.0, 24 hours contact, read-out: % Reduction (Kill)
  killing at 80 ppm: 100%
[4]; 24 h, pH 8, Day 3 after preparation in soft water, pH 8.0, 24 hours contact, read-out: % Reduction (Kill)
  killing at 40 ppm: 100%
[4]; 24 h, pH 8, Day 3 after preparation in soft water, 80 ppm, pH 8.0, 24 hours contact, read-out: % Reduction (Kill)
  killing at 80 ppm: 100%
[4]; 24 h, pH 8, Day 4 after preparation in soft water, pH 8.0, 24 hours contact, read-out: % Reduction (Kill)
  killing at 40 ppm: 98.7%
[4]; 24 h, pH 8, Day 4 after preparation in soft water, 80 ppm, pH 8.0, 24 hours contact, read-out: % Reduction (Kill)
  killing at 80 ppm: 100%
[4]; 24 h, pH 8, Day 5 after preparation in soft water, pH 8.0, 24 hours contact, read-out: % Reduction (Kill)
  killing at 40 ppm: 99.9%
[4]; 24 h, pH 8, Day 5 after preparation in soft water, 80 ppm, pH 8.0, 24 hours contact, read-out: % Reduction (Kill)
  killing at 80 ppm: 99.9%
[4]; 24 h, pH 8, Day 14 after preparation in soft water, pH 8.0, 24 hours contact, read-out: % Reduction (Kill)
  killing at 40 ppm: 99.5%
[4]; 24 h, pH 8, Day 14 after preparation in soft water, 80 ppm, pH 8.0, 24 hours contact, read-out: % Reduction (Kill)
  killing at 80 ppm: 99.9%
[4]; 24 h, pH 8, Day 15 after preparation in soft water, pH 8.0, 24 hours contact, read-out: % Reduction (Kill)
  killing at 40 ppm: 99.3%
[4]; 24 h, pH 8, Day 15 after preparation in soft water, 80 ppm, pH 8.0, 24 hours contact, read-out: % Reduction (Kill)
  killing at 80 ppm: 100%
[4]; 24 h, read-out: prolonged sanitizing ability maintained (percent kill), 80 ppm, 24 hours contact, through 15 days post-preparation in water
  killing at 80 ppm: ≥ 99%
[4]; pH 6
  activity maintained (percent kill): ≥ 99.99%
[4]; pH 8
  activity maintained (percent kill): ≥ 99.96%
[5]
  MIC: 2 µg/mL (≈ 9.33 µM)
